From ChEMBL document CHEMBL4613209, “Quinolone hybrids and their anti-cancer activities: An overview” (Eur J Med Chem, 2019) come the findings set out here.

One data set has as its system KB. In words: Potency index, ratio of TD50 for doxorubicin to TD50 for test compound for cytotoxicity against human KB cells assessed as reduction in cell viability. It is filed as functional.
Data set [1] concerns L1210. In words: Potency index, ratio of TD50 for doxorubicin to TD50 for test compound for cytotoxicity against mouse L1210 cells assessed as reduction in cell viability. It is filed as functional.
A short description of data set [2]: Potency index, ratio of TD50 for doxorubicin to TD50 for test compound for cytotoxicity against human SW403 cells assessed as reduction in cell viability. The data set is classed as functional.
Data set [3] deals with MCF7. In words: Potency index, ratio of TD50 for doxorubicin to TD50 for test compound for cytotoxicity against human MCF7 cells assessed as reduction in cell viability. The data set is classed as functional.
A further data set deals with OVCAR-3. In words: Potency index, ratio of TD50 for doxorubicin to TD50 for test compound for cytotoxicity against human OVCAR3 cells assessed as reduction in cell viability. The data set is classed as functional.
Data set [4] in a line: Cytotoxicity against human WI38 cells assessed as reduction in cell viability. It is filed as cell-based. The settings on record: WI-38 cells, read-out: TD50 (the source's name).
The subject of another data set is MRC5. In words: Cytotoxicity against human MRC5 cells assessed as reduction in cell viability. The data set is classed as functional. The note with it: read-out: TD50 (the source's name).
Another data set has as its system CCRF S-180. In words: Antitumor activity against mouse S180 cells xenografted in mouse assessed as reduction in tumor weight at 10 mg/kg relative to control. The data set is classed as functional. Details: scale not given: the % may be the effect or the level left.
Data set [5] can be described thus: Cytotoxicity against human MGC832 cells assessed as reduction in cell viability after 48 hrs by MTT assay. It is filed as functional, cell-based. A general note: Tetrazolium assays rely on reduction of a dye to a coloured formazan, in cell work by metabolically active cells.
For data set [6], the system named is HeLa. Nature of the data set: Cytotoxicity against human HeLa cells assessed as reduction in cell viability after 48 hrs by MTT assay. The data set is classed as functional, cell-based.
The test system of data set [7] is HL-60. Nature of the data set: Cytotoxicity against human HL60 cells assessed as reduction in cell viability. It is filed as functional, cell-based.
Data set [8] deals with Hep 3B2. Nature of the data set: Potency index, ratio of IC50 for doxorubicin to IC50 for test compound for cytotoxicity against human Hep3B cells assessed as reduction in cell viability. It is filed as functional.
In data set [9] the test system is CAPAN-1. Nature of the data set: Cytotoxicity against human Capan1 cells assessed as reduction in cell viability. It is filed as functional, cell-based.
The subject of data set [10] is Hep 3B2. Nature of the data set: Cytotoxicity against human Hep3B cells assessed as reduction in cell viability. The data set is classed as functional, cell-based.
For data set [11], the system named is CAPAN-1. Nature of the data set: Potency index, ratio of IC50 for doxorubicin to IC50 for test compound for cytotoxicity against human Capan1 cells assessed as reduction in cell viability. The data set is classed as functional.
Data set [12] deals with HL-60. In words: Potency index, ratio of IC50 for doxorubicin to IC50 for test compound for cytotoxicity against human HL60 cells assessed as reduction in cell viability. It is filed as functional.
The test system of a further data set is SW1990. Nature of the data set: Cytotoxicity against human SW1990 cells assessed as reduction in cell viability by MTT assay. The data set is classed as functional, cell-based.
The next data set deals with NCI/ADR-RES. In words: Cytotoxicity against human MCF7/ADR cells assessed as reduction in cell viability by MTT assay. It is filed as functional, cell-based.
Data set [13] deals with MCF7. Nature of the data set: Cytotoxicity against human MCF7 cells assessed as reduction in cell viability by MTT assay. It is filed as functional, cell-based.
For another data set, the system named is SMMC-7721. In words: Cytotoxicity against human SMMC7721 cells assessed as reduction in cell viability by MTT assay. The data set is classed as functional, cell-based.
A further data set deals with HUVEC. In words: Cytotoxicity against human HUVEC cells assessed as reduction in cell viability by MTT assay. It is filed as cell-based.
Data set [14] has as its system HeLa. Nature of the data set: Cytotoxicity against human HeLa cells assessed as reduction in cell viability after 24 to 72 hrs by MTT assay. It is filed as functional, cell-based.
The subject of data set [15] is L1210. In words: Cytotoxicity against mouse L1210 cells assessed as reduction in cell viability after 24 to 72 hrs by MTT assay. It is filed as functional, cell-based.

In brackets after ≈: the same amount, converted by molar mass. A value given as a limit tells only on which side of the number the result lay.

`Cc1cn(-c2ccc(CCCCCCCCCCn3ccc(=O)c4c(N)cccc43)cc2)nn1`: the Ratio result (with KB; in the data set with L1210 [1]; in data set [2]; with MCF7 [3]; in the data set with OVCAR-3) was “>=4.6” in each case. Also, the CC50 in [4] turned out to be 7.45 µg/mL (≈ 16.3 µM); in the data set on MRC5, 0.033 µg/mL (≈ 0.0721 µM). Besides, the Activity with CCRF S-180 is 13.1%.

Broadly, the IC50 is the point on the concentration scale where inhibition reaches its midpoint. On to `COC(=O)c1c(-c2ccc[nH]2)[nH]c2ccccc2c1=O`, for which the IC50 turned out to be 0.013 µM in [5] and 0.11 µM in the data set with HeLa [6].

`CN1CCN(c2cc3c(cc2F)c(=O)c(-c2nc4s/c(=C\c5ccc(S(N)(=O)=O)cc5)c(=O)n4n2)cn3C2CC2)CC1`: the IC50 in the data set with HL-60 [7] is 1.5 µM; in the data set with CAPAN-1 [9] it was 0.3 µM; in the data set with Hep 3B2 [10] it was 0.7 µM. The “Ratio IC50” value in the data set on Hep 3B2 [8], in the data set on CAPAN-1 [11] and with HL-60 [12] was 2.3 - 5.6 in each case.

As for `COc1ccc2cc3[n+](cc2c1OCc1cn(Cc2cc(=O)[nH]c4ccccc24)nn1)-c1cc2c(cc1CC3)OCO2`, the IC50 with SW1990, in the data set on NCI/ADR-RES, in the data set on MCF7 [13], in the data set with SMMC-7721 and in the data set on HUVEC was 75.5 to 181 µM in each case.

On to `CCOC(=O)c1cn(CC)c2c(ccc3n[se]nc32)c1=O`, for which the IC50 with HeLa [14] and in the data set on L1210 [15] was ≤ 100 µM throughout.
